For one compound, Activity results are on record in ChEMBL document CHEMBL1141398, “Metastin (KiSS-1) mimetics identified from peptide structure-activity relationship-derived pharmacophores and directed small molecule database screening” (J Med Chem, 2007).

Calls of active or inactive are those of the source. The rule behind the calls is not given here.

In the assay the target is KiSS-1 receptor (Homo sapiens, UniProt Q969F8). Nature of the assay: Activity at metastin receptor expressed in HEK293 cells by measuring calcium release at 100 uM. It is filed as functional, cell-based.
Chain of KiSS-1 receptor (Q969F8 whole entry): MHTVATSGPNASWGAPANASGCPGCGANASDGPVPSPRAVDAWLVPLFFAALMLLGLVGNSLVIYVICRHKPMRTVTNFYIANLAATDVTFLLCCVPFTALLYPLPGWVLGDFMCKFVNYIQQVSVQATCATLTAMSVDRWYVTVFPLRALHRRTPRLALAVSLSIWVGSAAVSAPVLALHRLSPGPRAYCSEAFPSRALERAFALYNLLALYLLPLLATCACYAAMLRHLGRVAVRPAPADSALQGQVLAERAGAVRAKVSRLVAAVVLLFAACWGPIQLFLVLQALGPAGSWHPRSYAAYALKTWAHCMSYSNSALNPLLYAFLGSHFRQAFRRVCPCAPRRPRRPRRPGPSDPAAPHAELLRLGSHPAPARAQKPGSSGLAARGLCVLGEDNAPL

For `CC(C)(C)CC(C)(C)c1ccc(OCCOCC[N+](C)(C)Cc2ccccc2)cc1` [BENZETHONIUM CHLORIDE], the result was Active.
